# Experimental data as given in PMC8624998, “Synthesis and Antiproliferative Evaluation of 3-Chloroazetidin-2-ones with Antimitotic Activity: Heterocyclic Bridged Analogues of Combretastatin A-4” (Pharmaceuticals, 2021).
# Read-outs that look alike come from different tables or passages of the source.
# Experiments:
# [1] = HPLC stability study in phosphate buffers; format: physicochemical; conditions: phosphate buffer
# Description: HPLC stability studies at three different pH systems were performed on a representative compound 16a to determine the stability at acidic pH 4, pH 7.4 and basic pH 9 (acid pH found in the stomach, basic found in the intestine and pH 7.4 in the plasma).
# A stability study for compound 16a was performed by analytical HPLC using a Symmetry® column (C18, […], 4.6 × 150 mm), a Waters 2487 Dual Wavelength Absorbance detector, a Waters 1525 binary HPLC pump and a Waters 717 plus Autosampler (Waters Corporation, Milford, MA, USA). Samples were detected at λ 254 nm using acetonitrile (70%)/water (30%) as the mobile phase over 15 min and a flow rate of 1 mL/min. A stock solution of the compound was prepared using 10 mg of compound 16a in 10 mL of mobile phase (1 mg/mL). A calibration curve was prepared using a solution of 0.5, 0.25, 0.125, 0.0625, 0.03125, 0.015625 and 0.0078 mg/mL. (i) Stability of 16a in phosphate buffers: Phosphate buffers at pH values 4, 7.4 and 9 were prepared according to the British Pharmacopoeia 2020. A total of 300 µL of stock solution (1 mg/mL ACN) for 16a was added to a vial containing 9.7 mL of buffer, mixed and pre-heated to 37°C. A total of 1 mL of the solution was added to the HPLC glass vial and 10 µL was injected, followed by hourly injections for a 24-h period. Samples were withdrawn and analysed at time intervals of t = 0 min, 5 min, 30 min, 60 min and hourly for 24 h. The analysis was performed in triplicate. (ii) Thermal stability: 16a (1 mg) was placed in a vial (for the solution, 1 mL of stock solution was used) at 60 °C for 4 h on a heating block. The sample was then cooled, diluted with ACN and analysed using HPLC. (iii) Photostability study: A solution of compound 16a (1 mL of the stock solution) was placed in a vial and exposed to UV light for 4 h. The sample was directly analysed using HPLC. […] Once neutralised, the samples were analysed using HPLC. […] Once neutralised, the samples were analysed using HPLC. […] A sample from the vial was taken every hour over 4 h and analysed using HPLC.
# [2] = test system: MCF-7 cells; experiment: Cell viability assay (MTT/AlamarBlue), antiproliferative activity; format: cell-based, human
# Description: […]. The introduction of the halogen substituent at C-3 was examined in an effort to investigate the effect on the activity of this substituent, and subsequently optimising the cytotoxic effects against MCF-7 human breast cancer cells.
# (§1) The human breast carcinoma cell line MCF-7 was purchased from the European Collection of Animal Cell Cultures (ECACC). Triple negative breast cancer Hs578T cells and its invasive variant Hs578Ts(i)8 were a kind gift from Dr. Susan McDonnell, School of Chemical and Bioprocess Engineering, University College Dublin. U266 cells were a gift from Dr. Tony McElligott, School of Medicine, St James’s Hospital, Trinity College Dublin. HT-29 cells were purchased from the European Collection of Cell Cultures (originating from a human adenocarcinoma of the colon). The human breast carcinoma cell line MDA-MB-231 and the HL-60 cells derived from a patient with acute myeloid leukaemia were both obtained from ECACC (Salisbury, UK). The SW-480 cells were a kind gift from Dr. Brian Flood, School of Biochemistry and Immunology, Trinity College Dublin. HEK-293T (normal epithelial embryonic kidney cells) were cultured in Dulbecco’s Modified Eagle’s Medium (DMEM) with GlutaMAXTM-I in the absence of non-essential amino acids. Human breast cancer MCF-7 cells and multiple myeloma U266 cells were cultured in Minimum Essential Media (MEM) with GlutaMAX™-I, supplemented with 1% (v/v) non-essential amino acids, 10% 2(v/v) foetal bovine serum (FBS) and 1% (v/v) penicillin/streptomycin 5000 U/mL. MDA-MB-231 cells were maintained in DMEM supplemented with 10% (v/v) foetal bovine serum, 2 mM L-glutamine and 100 μg/mL penicillin/streptomycin (complete medium). Colon cancer HT-29 and SW-480 and triple negative breast cancer Hs578T and its invasive variant Hs578T8i were cultured in DMEM with GlutaMAX™-I, with the same supplement in the absence of non-essential amino acids. Leukaemia HL-60 cancer cells were cultured in Roswell Park Memorial Institute Media (RPMI-1640) with GlutaMAX™-I, supplemented with 10% FCS media, and 100 μg/mL penicillin/streptomycin as above. Cell numbers were monitored using a haemocytometer. Cell culture flasks were incubated in a humidified incubator (5% CO2/95% air) at 37 °C. All cell lines were sub-cultured three times per week with trypsinisation using TrypLE Express (1X) required for adherent cell lines.
# (§2) . All stock solutions and serial dilution in ethanol/DMSO were stored at -20 °C. All cells were seeded at a density of 2.5 × 10^4 cells/mL in a 96-well plate (200 μL per well). The cells were incubated in a […] atmosphere at 37 °C for 24 h, then treated with test compound (2 μL of stock solutions per 200-microlitre well) in ethanol to obtain a concentration range of 1 nM–200 μM for the study. The plates were then re-incubated for a further 72 h. Control wells contained an equivalent volume of the vehicle ethanol or DMSO (1% v/v). MTT cell viability assay: The culture medium was removed, and the cells were washed with phosphate buffered saline (PBS, […]). MTT (dissolved in PBS, […]) was added to obtain a final concentration of MTT (1 mg/mL). Cells were incubated at 37 °C for 3 h in the dark. Solubilisation was commenced by the addition of DMSO ([…]) and the cells were maintained at 20 °C in the dark for 20 min before reading the absorbance to ensure complete colour diffusion. The absorbance value of control cells (no added compound) was set to 100% cell viability and absorbance versus cell density per well was determined to assess cell viability using Graph-Pad Prism software. AlamarBlue cell viability assay: Cells were seeded in 96-well plates (e.g., MCF-7, 5 × 10^3 cells/well) and (HT-29 cells, 1 × 10^3 cells/well) and (HL-60 cells, 1 × 10^4 cells/well) with a total volume per well of 200 µL. After 24 h, cells were treated in triplicate with serial dilutions of CA-4 or β-lactam analogues (0.001–100 μM), medium alone or vehicle (1% ethanol (v/v)). […]
# [3] = test system: SW480 cells; experiment: Cell viability assay, antiproliferative activity; format: cell-based, human; conditions: SW480, 10 μM
# Description: […]. The corresponding values for 10e in these cell lines were 161 nM (HL-60), 55 nM (SW480) and 135 nM (HT-29). […] […]. SW480 colon cells expressed low levels of the UDP-glucuronosyltransferase (UGT) protein compared to expression levels in HT-29 cells. […] […].
# as §1, §2
# [4] = test system: MCF-7 cells; experiment: Lactate dehydrogenase (LDH) assay for cytotoxicity; format: cell-based; conditions: Homo sapiens, MCF7; MCF-7, compound concentration 10 μM, 24 h; read-out: Lactate Dehydrogenase assay: % cell lysis (cell death)
# Description: The toxicity and selectivity of 10n towards normal cells was investigated in the non-tumourigenic cell line HEK-293T (normal human epithelial embryonic kidney cells). […] The cytotoxic effect of selected 3-chloro-β-lactams 10e, 10f, 10i, 10n and 3,3-dichloro-β-lactams 11e and 11n in MCF-7 cells was initially determined using the lactate dehydrogenase (LDH) assay.
# The cytotoxicity of selected compounds was determined using the CytoTox 96 non-radioactive cytotoxicity assay (Promega Corporation, Madison, WI, USA). Briefly, MCF-7 cells were seeded in a 96-well plate (200 μL per well), at a density of 2.5 × 10^4 cells/mL, and incubated for 24 h. The cells were then treated with selected β-lactam compounds as described above for the cell viability assay. […] Supernatant (50 μL) was removed from each well to a 96-well plate. Reconstituted ‘CytoTox 96® Reagent (50 μL) was added to each well and the plate was placed in the dark at 20 °C for 30 min. ‘Stop solution’ (50 μL) was added to each well and the samples were analysed at 490 nm using a Dynatech MR5000 plate reader. The percentage cell death at 10 μM was calculated.
# [5] = test system: MDA-MB-231 cells; experiment: Cell viability assay, antiproliferative activity; format: cell-based; conditions: Homo sapiens; MDA-MB-231, 72 h; 10e and 11n results from NCI; read-out: Antiproliferative Activity IC50 MDA-MB-231, 72 h
# Description: Selected β-lactam compounds were next evaluated in the triple negative cell line MDA-MB-231 (Table 4). […] These cancers are difficult to treat since they are generally not responsive to hormone therapies such as the selective oestrogen receptor modulator (SERM) tamoxifen, or aromatase inhibitors such as anastrozole, or to the monoclonal antibody Herceptin, which targets the HER2 receptor. There are fewer treatment options available for TNBC compared with ER+, PR+ and HER2+ breast cancers and the prognosis is poorer. […]. The human breast carcinoma cell line MCF-7 was purchased from the European Collection of Animal Cell Cultures (ECACC). Triple negative breast cancer Hs578T cells and its invasive variant Hs578Ts(i)8 were a kind gift from Dr. Susan McDonnell, School of Chemical and Bioprocess Engineering, University College Dublin. U266 cells were a gift from Dr. Tony McElligott, School of Medicine, St James’s Hospital, Trinity College Dublin. HT-29 cells were purchased from the European Collection of Cell Cultures (originating from a human adenocarcinoma of the colon). The human breast carcinoma cell line MDA-MB-231 and the HL-60 cells derived from a patient with acute myeloid leukaemia were both obtained from ECACC (Salisbury, UK). The SW-480 cells were a kind gift from Dr. Brian Flood, School of Biochemistry and Immunology, Trinity College Dublin. HEK-293T (normal epithelial embryonic kidney cells) were cultured in Dulbecco’s Modified Eagle’s Medium (DMEM) with GlutaMAXTM-I in the absence of non-essential amino acids. Human breast cancer MCF-7 cells and multiple myeloma U266 cells were cultured in Minimum Essential Media (MEM) with GlutaMAX™-I, supplemented with 1% (v/v) non-essential amino acids, 10% 2(v/v) foetal bovine serum (FBS) and 1% (v/v) penicillin/streptomycin 5000 U/mL. MDA-MB-231 cells were maintained in DMEM supplemented with 10% (v/v) foetal bovine serum, 2 mM L-glutamine and 100 μg/mL penicillin/streptomycin (complete medium). Colon cancer HT-29 and SW-480 and triple negative breast cancer Hs578T and its invasive variant Hs578T8i were cultured in DMEM with GlutaMAX™-I, with the same supplement in the absence of non-essential amino acids. Leukaemia HL-60 cancer cells were cultured in Roswell Park Memorial Institute Media (RPMI-1640) with GlutaMAX™-I, supplemented with 10% FCS media, and 100 μg/mL penicillin/streptomycin as above. Cell numbers were monitored using a haemocytometer. Cell culture flasks were incubated in a humidified incubator (5% CO2/95% air) at 37 °C. All cell lines were sub-cultured three times per week with trypsinisation using TrypLE Express (1X) required for adherent cell lines.
# as §2, with “software.” for “software. AlamarBlue cell viability assay: Cells were seeded in 96-well plates (e.g., MCF-7, 5 × 10^3 cells/well) and (HT-29 cells, 1 × 10^3 cells/well) and (HL-60 cells, 1 × 10^4 cells/well) with a total volume per well of 200 µL. After 24 h, cells were treated in triplicate with serial dilutions of CA-4 or β-lactam analogues (0.001–100 μM), medium alone or vehicle (1% ethanol (v/v)).”
# [6] = test system: MCF-7 cells; conditions: MCF-7, 72 h; previously reported compounds, footnote g; cited from earlier work
"half-life at 0.03 mg/mL ([1]; buffer pH 4, 37°C) [min]","half-life at 0.03 mg/mL ([1]; buffer pH 7.4, 37°C) [min]","half-life at 0.03 mg/mL ([1]; buffer pH 9, 37°C) [min]","IC50 ([2]; Homo sapiens, MCF7, 72 h, MCF-7, 72 h, read-out: IC50 (MCF-7, 72 h)) [nM]",SMILES,fold decrease in activity vs corresponding 3-chloro compound 10e ([2]; MCF-7 IC50 ratio) [fold],SW480 inhibition of cell viability [3] [%],cytotoxicity at 10 µM [4] [%],IC50 [5] [nM],IC50 [6] [nM]
1080,1320,1200,579 ± 30,"COc1ccc(C2C(Br)C(=O)N2c2cc(OC)c(OC)c(OC)c2)cc1 (stereo not drawn) [Compound 16a, 3-Bromo-4-(4-methoxyphenyl)-1-(3,4,5-trimethoxyphenyl)azetidin-2-one]",17,52,,,
,,,,CCOc1ccc([C@H]2[C@H](Cl)C(=O)N2c2cc(OC)c(OC)c(OC)c2)cc1 (relative stereo) [Compound 10f],,,4,78 ± 8,130 ± 17
,,,,COc1ccc(C2N(c3cc(OC)c(OC)c(OC)c3)C(=O)C2(Cl)Cl)cc1 (stereo not drawn) [Compound 11e],,,10,297 ± 40,119 ± 12
